Laboratory results taken from ChEMBL document CHEMBL1201862, “PubChem BioAssay data set” (2004).
Active and inactive are the calls of the source.

Experiments:
[1] = target: T1, Carboxy-terminal domain RNA polymerase II polypeptide A small phosphatase 1 (Homo sapiens, UniProt Q9GZU7); experiment: inhibitors of CTDSP1, concentration-response testing, biochemical assay, absorbance-based, actives from ultra-high-throughput screening (AID 540297); assay type: functional
T1 sequence (Q9GZU7 whole entry): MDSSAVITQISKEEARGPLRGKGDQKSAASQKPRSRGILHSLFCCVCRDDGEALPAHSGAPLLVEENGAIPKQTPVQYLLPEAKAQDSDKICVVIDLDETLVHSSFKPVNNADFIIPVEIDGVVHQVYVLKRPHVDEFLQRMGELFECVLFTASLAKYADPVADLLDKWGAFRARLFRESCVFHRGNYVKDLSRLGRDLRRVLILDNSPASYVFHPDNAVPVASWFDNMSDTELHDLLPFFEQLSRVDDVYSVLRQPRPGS

[2] = target: Dual specificity protein phosphatase 3 (Homo sapiens, UniProt P51452); experiment: VHR phosphatase inhibition, dose response, selectivity assay for STEP inhibitor project, biochemical (AID 602374); assay type: functional; conditions: read-out: IC50_Mean
[3] = target: Tyrosine-protein phosphatase non-receptor type 5 (Homo sapiens, UniProt P54829); experiment: STEP phosphatase inhibitors, confirmation, biochemical, fluorescence intensity, uHTS hits (AID 602372); assay type: functional; conditions: read-out: IC50_Mean
[4] = target: Tyrosine-protein phosphatase non-receptor type 11 (Homo sapiens, UniProt Q06124); experiment: SHP2 phosphatase inhibition, dose response, selectivity assay for STEP inhibitor project, biochemical (AID 602367); assay type: functional; conditions: read-out: IC50_Mean
[5] = target: Potassium voltage-gated channel subfamily KQT member 2 (Rattus norvegicus, UniProt O88943); experiment: KCNQ2 potassium channel inhibitors, dose response, cell-based, automated electrophysiology, set II, rat KCNQ2 (AID 588637); assay type: functional
[6] = target: T2, Eukaryotic translation initiation factor 2-alpha kinase 3 (Homo sapiens, UniProt Q9NZJ5); experiment: Counterscreen assay for PERK inhibitors: Dose response cell-based high throughput screening assay to measure inhibition of PERK at 6 hours. [Related pubchem assays: 1522, 1416 ]; assay type: functional
T2 sequence (Q9NZJ5 whole entry): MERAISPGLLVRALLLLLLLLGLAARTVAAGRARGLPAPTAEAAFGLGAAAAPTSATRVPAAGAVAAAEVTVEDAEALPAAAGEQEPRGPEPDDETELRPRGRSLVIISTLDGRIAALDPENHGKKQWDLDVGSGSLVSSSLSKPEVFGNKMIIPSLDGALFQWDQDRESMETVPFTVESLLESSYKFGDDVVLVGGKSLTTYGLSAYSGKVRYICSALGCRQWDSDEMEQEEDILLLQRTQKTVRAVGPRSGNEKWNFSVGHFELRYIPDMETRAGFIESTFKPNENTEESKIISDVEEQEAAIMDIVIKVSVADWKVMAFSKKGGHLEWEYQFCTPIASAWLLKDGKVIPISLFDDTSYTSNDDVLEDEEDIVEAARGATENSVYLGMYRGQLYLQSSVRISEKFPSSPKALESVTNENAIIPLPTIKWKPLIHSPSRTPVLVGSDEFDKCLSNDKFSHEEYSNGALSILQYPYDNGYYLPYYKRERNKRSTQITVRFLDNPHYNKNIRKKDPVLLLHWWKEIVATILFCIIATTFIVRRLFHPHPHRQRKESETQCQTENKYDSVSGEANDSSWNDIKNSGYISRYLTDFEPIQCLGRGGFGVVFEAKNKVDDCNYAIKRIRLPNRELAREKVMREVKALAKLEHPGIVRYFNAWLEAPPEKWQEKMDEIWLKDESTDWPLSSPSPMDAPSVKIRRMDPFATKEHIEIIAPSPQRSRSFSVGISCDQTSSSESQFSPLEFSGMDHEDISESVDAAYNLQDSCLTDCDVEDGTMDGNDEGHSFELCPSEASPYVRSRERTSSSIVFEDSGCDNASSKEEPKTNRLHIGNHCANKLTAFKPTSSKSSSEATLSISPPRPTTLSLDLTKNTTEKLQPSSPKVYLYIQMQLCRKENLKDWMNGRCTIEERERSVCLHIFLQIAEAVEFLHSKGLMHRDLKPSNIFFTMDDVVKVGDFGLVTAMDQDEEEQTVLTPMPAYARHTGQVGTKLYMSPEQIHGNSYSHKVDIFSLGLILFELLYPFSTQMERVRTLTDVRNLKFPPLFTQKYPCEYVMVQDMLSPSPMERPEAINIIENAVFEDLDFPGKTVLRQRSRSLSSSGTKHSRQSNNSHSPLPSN

[7] = target: T3, Apoptotic protease-activating factor 1 (Homo sapiens, UniProt O14727); experiment: SAR analysis of small molecule Activators of Apaf-1 in a Fluorescent assay.; assay type: functional; conditions: read-out: EC50_Mean;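 note: caspase-3 cleavage of fluorogenic Rh110 DEVD substrate downstream of apoptosome activation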
T3 sequence (O14727 whole entry): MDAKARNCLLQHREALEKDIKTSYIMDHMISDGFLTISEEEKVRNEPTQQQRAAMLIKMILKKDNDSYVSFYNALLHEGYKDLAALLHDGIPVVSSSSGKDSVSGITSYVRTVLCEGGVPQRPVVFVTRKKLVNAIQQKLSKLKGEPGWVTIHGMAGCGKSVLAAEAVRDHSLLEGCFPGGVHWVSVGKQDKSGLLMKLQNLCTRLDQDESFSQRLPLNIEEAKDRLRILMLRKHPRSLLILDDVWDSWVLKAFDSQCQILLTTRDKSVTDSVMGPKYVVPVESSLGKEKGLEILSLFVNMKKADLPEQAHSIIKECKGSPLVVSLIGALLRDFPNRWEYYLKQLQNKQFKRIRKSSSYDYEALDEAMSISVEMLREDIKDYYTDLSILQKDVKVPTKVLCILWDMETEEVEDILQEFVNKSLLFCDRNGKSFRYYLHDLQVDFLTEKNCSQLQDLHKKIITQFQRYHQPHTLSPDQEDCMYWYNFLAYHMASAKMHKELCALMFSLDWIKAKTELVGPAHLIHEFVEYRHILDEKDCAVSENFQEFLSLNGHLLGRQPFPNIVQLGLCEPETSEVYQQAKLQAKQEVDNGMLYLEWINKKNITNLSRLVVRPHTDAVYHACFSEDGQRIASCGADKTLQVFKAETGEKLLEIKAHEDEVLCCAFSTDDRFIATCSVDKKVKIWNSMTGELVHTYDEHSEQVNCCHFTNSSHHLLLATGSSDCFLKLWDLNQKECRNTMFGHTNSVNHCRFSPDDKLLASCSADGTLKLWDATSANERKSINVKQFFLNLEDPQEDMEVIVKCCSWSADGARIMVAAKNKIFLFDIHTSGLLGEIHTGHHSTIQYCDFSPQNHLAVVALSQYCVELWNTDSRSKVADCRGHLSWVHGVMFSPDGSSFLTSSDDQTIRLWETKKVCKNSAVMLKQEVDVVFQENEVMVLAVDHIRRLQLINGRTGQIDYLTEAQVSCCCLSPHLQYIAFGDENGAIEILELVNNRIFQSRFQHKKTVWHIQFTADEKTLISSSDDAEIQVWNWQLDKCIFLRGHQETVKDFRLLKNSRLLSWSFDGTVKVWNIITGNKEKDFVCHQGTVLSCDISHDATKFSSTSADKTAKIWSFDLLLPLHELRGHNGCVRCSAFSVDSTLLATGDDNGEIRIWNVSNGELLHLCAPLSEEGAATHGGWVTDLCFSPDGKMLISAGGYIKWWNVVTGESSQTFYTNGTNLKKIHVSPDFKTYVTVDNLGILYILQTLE

[8] = target: T2, Eukaryotic translation initiation factor 2-alpha kinase 3; experiment: Dose response cell-based high-throughput screening assay to measure PERK inhibition. [Related pubchem assays: 1416 ]; assay type: functional
[9] = growth suppression of beta-catenin-knockout colon cells, dose response, cell-based, HCT116, human colon tumor (AID 1045); assay type: functional;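 note: HCT116 colon tumor cells with beta catenin knocked out; cells exposed to compound for 60 hours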
Melanocortin receptor 4 = Melanocortin receptor 4 (Homo sapiens, UniProt P32245); assay type: functional, cell-based;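 note: Cell-based assay with luminescence read-out, confirmatory dose-response testing for agonist activity of biased ligands at MC4R; human U2OS cells with tagged receptor and beta-arrestin; potency of agonists that increase receptor coupling to beta-arrestin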
SUMO-activating enzyme [10] = target: T4, SUMO-activating enzyme (Homo sapiens, UniProt Q9UBT2); experiment: inhibitors of in vitro SUMOylation cascade, primary screen, biochemical, HTRF, uHTS (AID 2006); assay type: protein-complex assay
[11] = target: Induced myeloid leukemia cell differentiation protein Mcl-1 (Homo sapiens, UniProt Q07820); assay type: functional
SUMO-activating enzyme [12] = target: T4, SUMO-activating enzyme; experiment: SUMOylation inhibitor hit validation, confirmation, SUMOylation inhibitor project, biochemical, AlphaScreen (AID 2018); assay type: functional
INS1 = experiment: beta cell apoptosis inhibitors, cytokine rescue, dose response, luminescence, retest (AID 449756); assay type: functional, cell-based; conditions: Rattus norvegicus;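 note: cell death triggered by IL-1 beta plus TNF-alpha plus IFN-gamma mixture; protective hits raise ATP signal compared with cytokine alone wells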
[13] = target: DNA damage-inducible transcript 3 protein (Mus musculus, UniProt P35639); assay type: functional, Cricetulus griseus
[14] = growth suppression of PTEN-null colon cells, dose response, cell-based, HCT116 PTEN knockout (AID 1047); assay type: functional;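 note: HCT116 colon tumor cells with PTEN knocked out; cells exposed to compound for 60 hours before readout; potency for loss of cell viability measured by luminescence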
[15] = C. albicans growth with fluconazole, confirmation, fluorescence, retest (AID 2467); assay type: functional, cell-based
[16] = test system: Streptococcus sp. 'group A'; experiment: growth inhibition of control SK(-) GAS strain, dose response, counter-screen for streptokinase expression inhibitor project, luminescence, kanamycin, BacTiterGlo, confirmation (AID 1900); assay type: functional, organism-based
HEK293 = experiment: inhibitors of LMP1-driven NF-kB reporter, dose response, cell-based, HEK293, luciferase, cherry-pick (AID 588343); assay type: functional; conditions: Homo sapiens
[17] = target: T5, Serine/threonine-protein phosphatase (Candida dubliniensis (strain CD36 / CBS 7987 / NCPF 3949 / NRRLY-17841) (Yeast), UniProt B9W6M3); experiment: calcineurin pathway inhibitors in yeast reporter, dose response, S. cerevisiae, CDRE-lacZ, luminescence, secondary (AID 2388); assay type: functional, cell-based;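 note: yeast reporter cells carrying a calcineurin-responsive lacZ construct stimulated with calcium chloride; luminescent beta-galactosidase reporter signal in whole cells rather than isolated phosphatase activity; potency for inhibition where a drop in reporter signal means calcineurin blockade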
T5 sequence (B9W6M3 whole entry): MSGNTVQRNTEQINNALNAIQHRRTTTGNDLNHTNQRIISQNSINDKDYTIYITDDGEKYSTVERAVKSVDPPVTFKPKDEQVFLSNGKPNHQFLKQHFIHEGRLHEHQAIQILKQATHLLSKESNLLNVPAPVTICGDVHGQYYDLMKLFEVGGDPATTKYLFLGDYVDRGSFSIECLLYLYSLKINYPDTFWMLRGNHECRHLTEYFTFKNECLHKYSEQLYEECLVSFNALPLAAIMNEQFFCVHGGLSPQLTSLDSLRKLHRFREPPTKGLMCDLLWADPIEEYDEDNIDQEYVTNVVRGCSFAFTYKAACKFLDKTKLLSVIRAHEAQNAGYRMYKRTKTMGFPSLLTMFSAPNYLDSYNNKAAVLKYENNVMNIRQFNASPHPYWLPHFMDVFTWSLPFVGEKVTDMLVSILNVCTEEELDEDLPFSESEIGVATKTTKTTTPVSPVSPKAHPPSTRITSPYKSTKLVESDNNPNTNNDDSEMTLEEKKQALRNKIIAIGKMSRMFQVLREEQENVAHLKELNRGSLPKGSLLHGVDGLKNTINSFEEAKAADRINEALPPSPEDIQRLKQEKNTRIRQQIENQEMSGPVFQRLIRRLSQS

[18] = inhibitors of intracellular T. cruzi replication, confirmation, NIH3T3 host cells, beta-gal luminescence (AID 2044); assay type: functional, cell-based;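 note: intracellular parasites grown in NIH/3T3 mouse fibroblasts as host cells; luminescent beta-galactosidase reporter signal from transgenic T. cruzi replicating inside host cells; inhibitors lower the luminescence signal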
[19] = NIH-3T3 fibroblast cytotoxicity, dose response, cytotoxicity control, cell-based, fluorescence, Alamar Blue, secondary assay (AID 2327); assay type: functional;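 note: NIH-3T3 mouse fibroblasts cultured with fluconazole at 8 µg/mL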
[20] = target: ATP-dependent molecular chaperone HSP82 (Candida albicans (strain WO-1) (Yeast), UniProt C4YTQ8); experiment: loss of DOC-induced GRE-beta-galactosidase reporter signal, dose response, Hsp90 inhibitor project, S. cerevisiae, luminescence (AID 2400); assay type: functional, cell-based;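 note: beta-galactosidase luminescence from glucocorticoid response element reporter as proxy for Hsp90 function; inhibitor potency where signal loss means Hsp90 inhibition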
[21] = NIH-3T3 fibroblast cytotoxicity, dose response, cytotoxicity control for antifungal single agent project, cell-based, Alamar Blue, dry powder (AID 602188); assay type: functional
[22] = cytotoxicity toward NIH3T3 fibroblasts, dose response, counter-screen, cell-based, ATP luminescence, mouse fibroblasts (AID 2010); assay type: functional;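 note: cells exposed to compound for about 90 hours before reading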
Streptococcus = experiment: Group A Streptococcus viability loss, dose response, counter-screen for streptokinase expression inhibitor project, luminescence, BacTiterGlo (AID 1915); assay type: functional, organism-based;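 note: potency for reduction of bacterial viability or growth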
[23] = AlphaScreen signal interference compounds, dose response, artefact control for ARNT-TACC3 interaction inhibitor project, biochemical, luminescence, cherry-pick (AID 651705); assay type: functional;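 note: AlphaScreen bead proximity signal that flags compounds interfering with the detection technology; potency reflects signal decrease which marks the compound as an assay artifact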

T4 sequence (Q9UBE0 whole entry): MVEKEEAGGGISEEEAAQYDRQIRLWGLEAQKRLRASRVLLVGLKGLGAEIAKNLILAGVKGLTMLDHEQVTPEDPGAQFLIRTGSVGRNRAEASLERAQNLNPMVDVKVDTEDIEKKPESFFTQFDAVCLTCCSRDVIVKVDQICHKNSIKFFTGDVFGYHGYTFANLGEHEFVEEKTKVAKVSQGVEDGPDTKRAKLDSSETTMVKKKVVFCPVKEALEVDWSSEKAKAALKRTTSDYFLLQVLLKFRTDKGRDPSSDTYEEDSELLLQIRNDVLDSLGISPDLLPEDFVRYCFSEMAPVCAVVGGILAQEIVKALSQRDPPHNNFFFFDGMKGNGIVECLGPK
T4 sequence (Q9UBT2 whole entry): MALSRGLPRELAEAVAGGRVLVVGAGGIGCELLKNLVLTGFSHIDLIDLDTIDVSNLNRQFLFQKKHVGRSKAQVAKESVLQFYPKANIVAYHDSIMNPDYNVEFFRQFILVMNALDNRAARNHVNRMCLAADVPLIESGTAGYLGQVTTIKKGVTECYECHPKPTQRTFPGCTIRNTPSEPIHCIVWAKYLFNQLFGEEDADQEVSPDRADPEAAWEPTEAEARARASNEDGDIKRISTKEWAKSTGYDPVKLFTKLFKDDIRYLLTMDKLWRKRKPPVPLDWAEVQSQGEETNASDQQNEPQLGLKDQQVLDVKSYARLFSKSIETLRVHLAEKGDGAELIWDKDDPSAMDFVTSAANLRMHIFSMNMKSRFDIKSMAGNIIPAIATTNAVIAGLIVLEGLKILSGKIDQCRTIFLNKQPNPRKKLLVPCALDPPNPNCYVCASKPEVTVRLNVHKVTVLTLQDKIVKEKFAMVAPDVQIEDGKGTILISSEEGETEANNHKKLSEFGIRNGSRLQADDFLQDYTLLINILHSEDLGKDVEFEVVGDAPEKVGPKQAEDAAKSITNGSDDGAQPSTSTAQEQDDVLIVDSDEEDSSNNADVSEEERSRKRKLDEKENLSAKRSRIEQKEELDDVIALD
DNA damage-inducible transcript 3 protein, sequence (P35639 whole entry): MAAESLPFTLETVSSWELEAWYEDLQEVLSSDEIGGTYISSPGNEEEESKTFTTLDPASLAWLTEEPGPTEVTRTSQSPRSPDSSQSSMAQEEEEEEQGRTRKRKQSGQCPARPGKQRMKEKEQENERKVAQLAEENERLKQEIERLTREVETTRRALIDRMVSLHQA
ATP-dependent molecular chaperone HSP82, sequence (C4YTQ8 whole entry): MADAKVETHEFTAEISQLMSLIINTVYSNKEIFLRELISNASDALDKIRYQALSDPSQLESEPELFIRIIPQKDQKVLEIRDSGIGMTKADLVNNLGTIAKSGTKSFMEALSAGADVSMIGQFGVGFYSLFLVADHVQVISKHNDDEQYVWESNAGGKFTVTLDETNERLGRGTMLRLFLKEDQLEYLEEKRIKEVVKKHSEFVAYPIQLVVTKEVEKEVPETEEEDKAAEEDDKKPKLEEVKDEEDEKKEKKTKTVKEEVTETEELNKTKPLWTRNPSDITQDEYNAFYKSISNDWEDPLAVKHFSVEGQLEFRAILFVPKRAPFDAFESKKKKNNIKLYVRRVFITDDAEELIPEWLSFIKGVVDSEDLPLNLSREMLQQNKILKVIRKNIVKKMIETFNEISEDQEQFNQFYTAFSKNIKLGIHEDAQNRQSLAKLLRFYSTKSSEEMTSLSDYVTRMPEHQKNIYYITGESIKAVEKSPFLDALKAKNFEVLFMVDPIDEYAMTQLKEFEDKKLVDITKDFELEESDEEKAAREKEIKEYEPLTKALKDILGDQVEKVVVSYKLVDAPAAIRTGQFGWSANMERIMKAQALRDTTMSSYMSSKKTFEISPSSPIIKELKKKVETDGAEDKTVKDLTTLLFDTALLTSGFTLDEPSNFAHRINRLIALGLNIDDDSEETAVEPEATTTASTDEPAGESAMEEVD
Tyrosine-protein phosphatase non-receptor type 5, sequence (P54829 whole entry): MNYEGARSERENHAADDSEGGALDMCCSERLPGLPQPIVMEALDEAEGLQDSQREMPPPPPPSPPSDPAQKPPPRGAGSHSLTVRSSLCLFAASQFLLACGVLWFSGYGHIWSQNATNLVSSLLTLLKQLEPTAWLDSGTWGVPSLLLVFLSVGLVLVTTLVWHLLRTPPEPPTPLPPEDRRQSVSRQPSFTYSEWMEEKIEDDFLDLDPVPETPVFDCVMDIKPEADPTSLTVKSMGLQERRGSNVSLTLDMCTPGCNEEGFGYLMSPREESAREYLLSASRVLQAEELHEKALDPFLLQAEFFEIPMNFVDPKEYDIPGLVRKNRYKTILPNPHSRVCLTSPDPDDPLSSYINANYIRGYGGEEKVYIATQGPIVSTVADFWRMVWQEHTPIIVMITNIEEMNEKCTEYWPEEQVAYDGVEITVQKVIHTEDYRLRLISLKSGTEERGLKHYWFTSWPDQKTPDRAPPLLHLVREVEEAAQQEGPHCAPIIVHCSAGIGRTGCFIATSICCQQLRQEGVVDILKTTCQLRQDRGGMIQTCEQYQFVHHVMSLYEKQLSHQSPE
Induced myeloid leukemia cell differentiation protein Mcl-1, sequence (Q07820 whole entry): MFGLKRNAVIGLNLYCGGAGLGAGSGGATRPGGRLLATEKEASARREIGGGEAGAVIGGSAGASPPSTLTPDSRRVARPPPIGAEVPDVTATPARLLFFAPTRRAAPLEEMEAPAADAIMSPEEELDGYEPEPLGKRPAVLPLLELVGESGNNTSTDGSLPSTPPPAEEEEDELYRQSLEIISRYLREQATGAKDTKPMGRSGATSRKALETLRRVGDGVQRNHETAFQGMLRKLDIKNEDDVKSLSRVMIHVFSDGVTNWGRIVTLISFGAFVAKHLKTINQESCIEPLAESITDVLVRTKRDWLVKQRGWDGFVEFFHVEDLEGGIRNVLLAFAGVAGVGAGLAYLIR
Potassium voltage-gated channel subfamily KQT member 2, sequence (O88943 whole entry): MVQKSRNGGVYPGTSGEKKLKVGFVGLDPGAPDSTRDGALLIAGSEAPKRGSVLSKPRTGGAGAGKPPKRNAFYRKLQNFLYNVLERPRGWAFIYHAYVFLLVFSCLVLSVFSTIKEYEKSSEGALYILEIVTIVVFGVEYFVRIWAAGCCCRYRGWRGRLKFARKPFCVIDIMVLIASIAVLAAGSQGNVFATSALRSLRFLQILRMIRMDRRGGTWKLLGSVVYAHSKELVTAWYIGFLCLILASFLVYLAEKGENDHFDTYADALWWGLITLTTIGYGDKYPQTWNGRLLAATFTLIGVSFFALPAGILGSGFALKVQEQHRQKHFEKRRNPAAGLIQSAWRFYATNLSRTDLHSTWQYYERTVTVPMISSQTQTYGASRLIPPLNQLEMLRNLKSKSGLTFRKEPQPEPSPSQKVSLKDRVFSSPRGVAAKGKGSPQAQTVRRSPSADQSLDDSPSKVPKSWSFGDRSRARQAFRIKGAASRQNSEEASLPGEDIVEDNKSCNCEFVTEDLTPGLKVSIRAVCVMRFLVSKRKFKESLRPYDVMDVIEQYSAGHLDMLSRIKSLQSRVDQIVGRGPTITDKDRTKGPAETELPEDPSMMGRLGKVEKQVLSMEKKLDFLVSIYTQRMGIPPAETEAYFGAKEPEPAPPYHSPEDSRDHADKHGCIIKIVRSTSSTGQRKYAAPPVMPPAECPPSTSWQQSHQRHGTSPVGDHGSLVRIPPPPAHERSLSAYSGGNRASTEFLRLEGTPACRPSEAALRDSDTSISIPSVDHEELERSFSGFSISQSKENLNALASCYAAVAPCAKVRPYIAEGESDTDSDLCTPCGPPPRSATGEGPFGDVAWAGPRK
Melanocortin receptor 4, sequence (P32245 whole entry): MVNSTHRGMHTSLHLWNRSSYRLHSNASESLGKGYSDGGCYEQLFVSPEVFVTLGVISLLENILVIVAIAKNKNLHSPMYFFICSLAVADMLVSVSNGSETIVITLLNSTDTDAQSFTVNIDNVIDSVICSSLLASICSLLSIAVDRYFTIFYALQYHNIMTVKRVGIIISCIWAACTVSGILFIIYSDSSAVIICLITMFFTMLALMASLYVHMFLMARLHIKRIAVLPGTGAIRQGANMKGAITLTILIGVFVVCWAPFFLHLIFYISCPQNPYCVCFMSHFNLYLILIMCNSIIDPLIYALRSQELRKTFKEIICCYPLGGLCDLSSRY
Tyrosine-protein phosphatase non-receptor type 11, sequence (Q06124 whole entry): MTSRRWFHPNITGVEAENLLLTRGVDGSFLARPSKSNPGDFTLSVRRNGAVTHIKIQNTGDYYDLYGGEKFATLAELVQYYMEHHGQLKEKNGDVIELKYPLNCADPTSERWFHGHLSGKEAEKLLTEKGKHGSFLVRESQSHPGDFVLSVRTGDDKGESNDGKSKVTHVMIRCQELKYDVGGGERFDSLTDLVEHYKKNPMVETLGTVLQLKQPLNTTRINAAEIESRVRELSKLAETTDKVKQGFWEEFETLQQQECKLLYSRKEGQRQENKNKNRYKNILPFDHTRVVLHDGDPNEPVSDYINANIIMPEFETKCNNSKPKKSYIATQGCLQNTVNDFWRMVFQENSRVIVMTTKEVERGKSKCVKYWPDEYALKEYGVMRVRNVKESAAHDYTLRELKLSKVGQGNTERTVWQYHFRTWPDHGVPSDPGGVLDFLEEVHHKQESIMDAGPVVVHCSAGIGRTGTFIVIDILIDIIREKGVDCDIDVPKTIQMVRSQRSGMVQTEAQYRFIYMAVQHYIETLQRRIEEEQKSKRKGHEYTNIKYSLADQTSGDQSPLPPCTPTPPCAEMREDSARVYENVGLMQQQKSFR
Dual specificity protein phosphatase 3, sequence (P51452 whole entry): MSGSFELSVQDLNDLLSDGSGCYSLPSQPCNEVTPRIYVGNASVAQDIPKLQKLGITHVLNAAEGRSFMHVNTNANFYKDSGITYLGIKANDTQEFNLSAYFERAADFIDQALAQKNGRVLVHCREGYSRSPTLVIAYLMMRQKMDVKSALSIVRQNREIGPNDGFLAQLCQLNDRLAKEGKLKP

SMILES: CCN(c1ccccc1)S(=O)(=O)c1cc(C(=O)OCC(=O)c2c(N)n(C)c(=O)n(C)c2=O)ccc1C
- IC50 [1]: 3.71 µM (active)
- IC50 [2]: 2.62 µM (active)
- IC50 [3]: 30.9 µM (inactive)
- IC50 [4]: 1.13 µM (active)

SMILES: Cc1ccccc1OCCn1cc(C(=O)C(=O)N2CCOCC2)c2ccccc21
- IC50 [5]: 8.84 µM (active)

SMILES: Cc1csc2c(=O)sc(NC(=O)c3ccc(F)cc3)nc12
- EC50 [6]: > 55.7 µM (not active)
- EC50 [7]: > 100 µM (inactive)
- EC50 [8]: > 55.7 µM (not active)

SMILES: O=C(N=Nc1c(O)n(Cc2ccccc2)c2ccccc12)c1cc2ccccc2cc1O
- EC50 [9]: 5.03 µM (active)
- EC50 (Melanocortin receptor 4): > 89.2 µM (inactive)
- IC50 (SUMO-activating enzyme [10]): 13.8 µM (active)
- IC50 [11]: 5.39 µM (active)
- IC50 (SUMO-activating enzyme [12]): 12.3 µM (active)
- AC50 (INS1): 7.06 µM (active)
- Absolute IC50 (CHOP) [13]: 10 µM
- EC50 [14]: 4.96 µM (active)

SMILES: COc1ccc(-c2nnc(NC(=O)c3ccc(S(=O)(=O)N4CCCc5ccccc54)cc3)o2)cc1
- EC50 [15]: 0.326 µM (active)
- EC50 [16]: 0.186 µM (active)
- AC50 (HEK293): 3.47 µM (active)
- EC50 [17]: > 180 µM (inactive)
- EC50 [18]: 0.795 µM (active)
- EC50 [19]: 32.9 µM (inconclusive)
- EC50 [20]: > 150 µM (inactive)
- AC50 [21]: 2.71 µM (active)
- EC50 [22]: 5.82 µM (active)
- EC50 (Streptococcus): 0.855 µM (active)

SMILES: O=C(O)c1ccccc1-c1ccccc1C(=O)Nc1ccc2c(c1)nc(O)c1ccccc12
- AC50 [23]: 79.9 µM (active)
